According to ChEMBL document CHEMBL1933003, “Cytotoxic esterified diterpenoid alkaloid derivatives with increased selectivity against a drug-resistant cancer cell line” (Bioorg Med Chem Lett, 2012):

Key:
KB [1] = experiment: Cytotoxicity against human KB cells by sulforhodamine B assay; assay type: functional, cell-based
KB [2] = experiment: Cytotoxicity against multi-drug resistant variant vincristine resistant human KB cells expressing P-glycoprotein by sulforhodamine B assay; assay type: functional, cell-based
A549 = experiment: Cytotoxicity against human A549 cells by sulforhodamine B assay; assay type: functional, cell-based
DU-145 = experiment: Cytotoxicity against human DU145 cells by sulforhodamine B assay; assay type: functional, cell-based
KB [3] = experiment: Selectivity ratio of EC50 for human KB cells to EC50 for multi-drug resistant variant vincristine resistant human KB cells expressing P-glycoprotein by sulforhodamine B assay; assay type: functional

SMILES	EC50 (KB [1]) [µM]	EC50 (KB [2]) [µM]	EC50 (A549) [µM]	EC50 (DU-145) [µM]	Ratio EC50 (KB [3])
CCN1C[C@]2(C)CC[C@H](OC)[C@@]34[C@@H]5C[C@H]6[C@H](OC)[C@@H]5[C@@]5(C[C@@H]6OC)OCO[C@@]5([C@@H](OC(=O)/C=C/c5ccc(F)cc5)[C@H]23)[C@@H]14	> 20	> 20	> 20	> 20	–
CCN1C[C@]2(C)CC[C@H](OC)[C@@]34C1[C@@]1(OCO[C@@]15C[C@H](OC)[C@H]1C[C@@H]3[C@@H]5[C@H]1OC)[C@@H](OC(=O)c1ccc(SC(F)(F)F)cc1)[C@H]24 (single isomer, unassigned)	> 20	17.9	> 20	16.6	–
CCN1C[C@]2(C)CC[C@H](OC)[C@@]34[C@@H]5C[C@H]6[C@H](OC)[C@@H]5[C@@]5(C[C@@H]6OC)OCO[C@@]5([C@@H](OC(=O)c5cccc(C(F)(F)F)c5)[C@H]23)[C@@H]14	14.9	11.9	> 20	12.6	1.25
CCN1C[C@]2(C)CC[C@H](OC)[C@@]34[C@@H]5C[C@H]6[C@H](OC)[C@@H]5[C@@]5(C[C@@H]6OC)OCO[C@@]5([C@@H](OC(=O)/C=C/c5cccc(C(F)(F)F)c5)[C@H]23)[C@@H]14	> 20	9.1	10.2	15.1	>2.31
CCN1C[C@]2(C)CC[C@H](OC)[C@@]34C1[C@@]1(OCO[C@@]15C[C@H](OC)[C@H]1C[C@@H]3[C@@H]5[C@H]1OC)[C@@H](OC(=O)c1ccc(OC)cc1)[C@H]24 (single isomer, unassigned)	> 20	> 20	> 20	> 20	–
CCN1C[C@]2(C)CC[C@H](OC)[C@@]34C1[C@@]1(OCO[C@@]15C[C@H](OC)[C@H]1C[C@@H]3[C@@H]5[C@H]1O)[C@@H](O)[C@H]24 [DELPHELINE]	> 20	> 20	> 20	> 20	–
CCOc1ccc(C(=O)O[C@H]2[C@@H]3[C@@]4(C)CC[C@H](OC)[C@]35C(N(CC)C4)[C@@]23OCO[C@@]32C[C@H](OC)[C@H]3C[C@@H]5[C@@H]2[C@H]3OC)cc1 (single isomer, unassigned)	14.8	6.5	20	15.6	2.28
CCN1C[C@]2(C)CC[C@H](OC)[C@@]34C1[C@@]1(OCO[C@@]15C[C@H](OC)[C@H]1C[C@@H]3[C@@H]5[C@H]1OC)[C@@H](OC(=O)c1ccc(-c3ccccc3)cc1)[C@H]24 (single isomer, unassigned)	> 20	17.4	> 20	17.1	–
CCN1C[C@]2(C)CC[C@H](OC)[C@@]34C1[C@@]1(OCO[C@@]15C[C@H](OC)[C@H]1C[C@@H]3[C@@H]5[C@H]1OC)[C@@H](OC(=O)c1ccc([N+](=O)[O-])cc1)[C@H]24 (single isomer, unassigned)	> 20	17.7	> 20	17.2	–
CCN1C[C@]2(C)CC[C@H](OC)[C@@]34[C@@H]5C[C@H]6[C@H](OC)[C@@H]5[C@@]5(C[C@@H]6OC)OCO[C@@]5([C@@H](OC(=O)c5ccc(F)c(C)c5)[C@H]23)[C@@H]14	12.1	4.71	> 20	19.8	2.57
CCN1C[C@]2(C)CC[C@H](OC)[C@@]34[C@@H]5C[C@H]6[C@H](OC)[C@@H]5[C@@]5(C[C@@H]6OC)OCO[C@@]5([C@@H](OC(=O)c5ccc(C(F)(F)F)nc5)[C@H]23)[C@@H]14	> 20	18.7	> 20	> 20	–
CCN1C[C@]2(C)CC[C@H](OC)[C@@]34C1[C@@]1(OCO[C@@]15C[C@H](OC)[C@H]1C[C@@H]3[C@@H]5[C@H]1OC)[C@@H](OC(=O)c1cc([N+](=O)[O-])cc([N+](=O)[O-])c1)[C@H]24 (single isomer, unassigned)	19.1	20.3	> 20	> 20	–
CCN1C[C@]2(C)CC[C@H](OC)[C@@]34[C@@H]5C[C@H]6[C@H](OC)[C@@H]5[C@@]5(C[C@@H]6OC)OCO[C@@]5([C@@H](OC(=O)c5ccc(OCc6ccccc6)cc5)[C@H]23)[C@@H]14	6.76	4.22	14.1	13.2	1.6
CCN1C[C@]2(C)CC[C@H](OC)[C@@]34[C@@H]5C[C@H]6[C@H](OC)[C@@H]5[C@](O)(C[C@@H]6OC)[C@](O)([C@@H](OC(=O)c5cccc(C(F)(F)F)c5)[C@H]23)[C@@H]14	> 20	> 20	> 20	> 20	–
CCN1C[C@]2(C)CC[C@H](OC)[C@@]34[C@@H]5C[C@H]6[C@H](OC)[C@@H]5[C@@]5(C[C@@H]6OC)OCO[C@@]5([C@@H](OC(=O)c5ccc(Cl)cc5)[C@H]23)[C@@H]14	8.85	8.27	14.8	7.4	1.07
CCN1C(=O)[C@]2(C)CC[C@H](OC)[C@@]34[C@@H]5C[C@H]6[C@H](OC)[C@@H]5[C@@]5(C[C@@H]6OC)OCO[C@@]5([C@@H](O)[C@@H]32)[C@@H]14	> 20	> 20	> 20	> 20	–
CCN1C[C@]2(C)CC[C@H](OC)[C@@]34C1[C@@]1(OCO[C@@]15C[C@H](OC)[C@H]1C[C@@H]3[C@@H]5[C@H]1OC)[C@@H](OC(=O)c1ccc(C(=O)OC)cc1)[C@H]24 (single isomer, unassigned)	> 20	> 20	> 20	> 20	–
CC(=O)O[C@H]1C(=O)[C@@]2(C)[C@H]([C@H](OC(=O)c3ccccc3)[C@]3(O)C[C@H](OC(=O)[C@H](O)[C@@H](NC(=O)c4ccccc4)c4ccccc4)C(C)=C1C3(C)C)[C@]1(OC(C)=O)CO[C@@H]1C[C@@H]2O [PACLITAXEL]	0.006	0.76	0.0064	0.0059	–
CCN1C[C@]2(C)CC[C@H](OC)[C@@]34C1[C@@]1(OCO[C@@]15C[C@H](OC)[C@H]1C[C@@H]3[C@@H]5[C@H]1OC)[C@@H](OC(=O)c1ccc(F)cc1)[C@H]24 (single isomer, unassigned)	> 20	15	> 20	15.6	–
CCN1C[C@]2(C)CC[C@H](OC)[C@@]34C1[C@@]1(OCO[C@@]15C[C@H](OC)[C@H]1C[C@@H]3[C@@H]5[C@H]1OC)[C@@H](OC(=O)c1cc(F)c(F)c(F)c1)[C@H]24 (single isomer, unassigned)	14.6	6.8	19.9	16.9	2.15
CCN1C[C@]2(C)CC[C@H](OC)[C@@]34C1[C@@]1(OCO[C@@]15C[C@H](OC)[C@H]1C[C@@H]3[C@@H]5[C@H]1OC)[C@@H](OC(=O)c1cc(OC)c(OC)c(OC)c1)[C@H]24 (single isomer, unassigned)	> 20	> 20	> 20	> 20	–
CCN1C[C@]2(C)CC[C@H](OC)[C@@]34[C@@H]5C[C@H]6[C@H](OC)[C@@H]5[C@@]5(C[C@@H]6OC)OCO[C@@]5([C@@H](OC(=O)c5ccc(C(F)(F)F)c(F)c5)[C@H]23)[C@@H]14	5.44	4.4	16.5	11.3	1.24
CCN1C[C@]2(C)CC[C@H](OC)[C@@]34[C@@H]5C[C@H]6[C@H](OC)[C@@H]5[C@](O)(C[C@@H]6OC)[C@](O)([C@@H](O)[C@H]23)[C@@H]14	> 20	> 20	> 20	> 20	–
CCN1C[C@]2(C)CC[C@H](OC)[C@@]34C1[C@@]1(OCO[C@@]15C[C@H](OC)[C@H]1C[C@@H]3[C@@H]5[C@H]1OC)[C@@H](OC(=O)c1ccc(OC(F)(F)F)cc1)[C@H]24 (single isomer, unassigned)	20.1	18.9	18.7	20.3	–
CCN1C[C@]2(C)CC[C@H](OC)[C@@]34[C@@H]5C[C@H]6[C@H](O)[C@@H]5[C@@]5(C[C@@H]6OC)OCO[C@@]5(C(=O)[C@H]23)[C@@H]14 [YUNNADELPHININE]	> 20	> 20	> 20	> 20	–
CCN1C[C@]2(C)CC[C@H](OC)[C@@]34[C@@H]5C[C@H]6[C@H](OC)[C@@H]5[C@@]5(C[C@@H]6OC)OCO[C@@]5(C(=O)[C@H]23)[C@@H]14 [PACININE]	> 20	> 20	> 20	> 20	–
